ChEMBL document CHEMBL5518248, “Design, Synthesis, and Biological Evaluation of Novel Arylomycins against Multidrug-Resistant Gram-Negative Bacteria” (J Med Chem, 2024)

How the values were obtained:
Assay type in all cases: functional
Settings in all cases: time 18-20 hrs
[1] = tested on: Pseudomonas aeruginosa; experiment: Antibacterial activity against Pseudomonas aeruginosa 19-5 assessed as inhibition of bacterial growth measured after 18 to 20 hrs by broth microdilution method
[2] = tested on: Klebsiella pneumoniae; experiment: Antibacterial activity against Klebsiella pneumoniae 15-5 assessed as inhibition of bacterial growth measured after 18 to 20 hrs by broth microdilution method
[3] = tested on: Escherichia coli; experiment: Antibacterial activity against Escherichia coli 14-2 assessed as inhibition of bacterial growth measured after 18 to 20 hrs by broth microdilution method
[4] = tested on: Klebsiella pneumoniae; experiment: Antibacterial activity against Klebsiella pneumoniae 15-4 assessed as inhibition of bacterial growth measured after 18 to 20 hrs by broth microdilution method
[5] = tested on: Klebsiella pneumoniae; experiment: Antibacterial activity against Klebsiella pneumoniae 15-1 assessed as inhibition of bacterial growth measured after 18 to 20 hrs by broth microdilution method
[6] = tested on: Escherichia coli; experiment: Antibacterial activity against Escherichia coli ATCC 35218 assessed as inhibition of bacterial growth measured after 18 to 20 hrs by broth microdilution method
[7] = tested on: Acinetobacter baumannii; experiment: Antibacterial activity against Acinetobacter baumannii 17-2 assessed as inhibition of bacterial growth measured after 18 to 20 hrs by broth microdilution method
[8] = tested on: Pseudomonas aeruginosa; experiment: Antibacterial activity against Pseudomonas aeruginosa 17-1 assessed as inhibition of bacterial growth measured after 18 to 20 hrs by broth microdilution method
[9] = tested on: Acinetobacter baumannii; experiment: Antibacterial activity against Acinetobacter baumannii 17-8 assessed as inhibition of bacterial growth measured after 18 to 20 hrs by broth microdilution method
[10] = tested on: Escherichia coli; experiment: Antibacterial activity against Escherichia coli 14-4 assessed as inhibition of bacterial growth measured after 18 to 20 hrs by broth microdilution method

Row | Structure (SMILES) | MIC [1] | MIC [2] | MIC [3] | MIC [4] | MIC [5] | MIC [6] | MIC [7] | MIC [8] | MIC [9] | MIC [10]
1 | Cc1nc(-c2ccc(C(C)(C)C)cc2)ncc1CC(=O)N[C@@H](CCN)C(=O)N(C)[C@@H]1C(=O)N[C@@H](C)C(=O)N[C@H](C(=O)NCC#N)Cc2ccc(OCCN)c(c2)-c2cc1ccc2OCCN.O=C(O)C(F)(F)F.O=C(O)C(F)(F)F.O=C(O)C(F)(F)F.O=C(O)C(F)(F)F | > 64 µg/mL | > 64 µg/mL | 16 µg/mL | > 64 µg/mL | > 64 µg/mL | 16 µg/mL | 64 µg/mL | > 64 µg/mL | 8 µg/mL | 16 µg/mL
2 | COCCSSCc1ccc(-c2ncc(C(=O)N[C@@H](CCN)C(=O)N(C)[C@@H]3C(=O)N[C@@H](C)C(=O)N[C@H](C(=O)NCC#N)Cc4ccc(OCCN)c(c4)-c4cc3ccc4OCCN)c(C)n2)cc1.O=C(O)C(F)(F)F.O=C(O)C(F)(F)F.O=C(O)C(F)(F)F.O=C(O)C(F)(F)F | > 64 µg/mL | 1 µg/mL | 0.5 µg/mL | 2 µg/mL | 1 µg/mL | 0.25 µg/mL | 8 µg/mL | > 64 µg/mL | 2 µg/mL | 0.5 µg/mL
3 | Cc1nc(-c2ccc(CSSC3CCCCC3)cc2)ncc1C(=O)N[C@@H](CCN)C(=O)N(C)[C@@H]1C(=O)N[C@@H](C)C(=O)N[C@H](C(=O)NCC#N)Cc2ccc(OCCN)c(c2)-c2cc1ccc2OCCN.O=C(O)C(F)(F)F.O=C(O)C(F)(F)F.O=C(O)C(F)(F)F.O=C(O)C(F)(F)F | 4 µg/mL | 0.25 µg/mL | ≤ 0.03 µg/mL | 0.25 µg/mL | 0.5 µg/mL | ≤ 0.03 µg/mL | 1 µg/mL | 4 µg/mL | 0.5 µg/mL | 0.125 µg/mL
4 | Cc1nc(-c2ccc(C(C)(C)C)cc2)ncc1C(=O)N[C@@H](CCN)C(=O)N(C)[C@@H]1C(=O)N[C@@H](C)C(=O)N[C@H](C(=O)OCC=O)Cc2ccc(OCCN)c(c2)-c2cc1ccc2OCCN.Cl.Cl.Cl.Cl | > 64 µg/mL | ≤ 0.03 µg/mL | 0.06 µg/mL | 0.06 µg/mL | ≤ 0.03 µg/mL | ≤ 0.03 µg/mL | 8 µg/mL | > 64 µg/mL | 2 µg/mL | 0.125 µg/mL
5 | Cc1nc(-c2ccc(C(C)(C)C)cc2)ncc1C(=O)N[C@@H](CCN)C(=O)N(C)[C@@H]1C(=O)N[C@@H](C)C(=O)N[C@H](C(=O)CC#N)Cc2ccc(OCCN)c(c2)-c2cc1ccc2OCCN.O=C(O)C(F)(F)F.O=C(O)C(F)(F)F.O=C(O)C(F)(F)F.O=C(O)C(F)(F)F | > 64 µg/mL | 16 µg/mL | 8 µg/mL | 16 µg/mL | 16 µg/mL | 4 µg/mL | 16 µg/mL | > 64 µg/mL | 16 µg/mL | 8 µg/mL
6 | Cc1nc(-c2ccc(C(C)(C)C)cc2)ncc1C(=O)N[C@@H](CCN)C(=O)N(C)[C@@H]1C(=O)N[C@@H](C)C(=O)N[C@H](C(=O)NNCC#N)Cc2ccc(OCCN)c(c2)-c2cc1ccc2OCCN.Cl.Cl.Cl.Cl | > 64 µg/mL | 1 µg/mL | 1 µg/mL | 2 µg/mL | 2 µg/mL | 0.5 µg/mL | 32 µg/mL | > 64 µg/mL | 8 µg/mL | 0.5 µg/mL
7 | Cc1nc(-c2ccc(CCCSSC(C)(C)C)cc2)ncc1C(=O)N[C@@H](CCN)C(=O)N(C)[C@@H]1C(=O)N[C@@H](C)C(=O)N[C@H](C(=O)NCC#N)Cc2ccc(OCCN)c(c2)-c2cc1ccc2OCCN.O=C(O)C(F)(F)F.O=C(O)C(F)(F)F.O=C(O)C(F)(F)F.O=C(O)C(F)(F)F | 2 µg/mL | 0.5 µg/mL | 0.5 µg/mL | 0.5 µg/mL | 0.5 µg/mL | 0.5 µg/mL | 1 µg/mL | 4 µg/mL | 1 µg/mL | 0.25 µg/mL
8 | Cc1nc(-c2ccc(C(C)(C)C)cc2)ncc1C(=O)N[C@@H](CCN)C(=O)N(C)[C@@H]1C(=O)N[C@@H](C)C(=O)N[C@H](NC(=O)CC#N)Cc2ccc(OCCN)c(c2)-c2cc1ccc2OCCN.O=C(O)C(F)(F)F.O=C(O)C(F)(F)F.O=C(O)C(F)(F)F.O=C(O)C(F)(F)F | > 64 µg/mL | 64 µg/mL | 64 µg/mL | 64 µg/mL | 32 µg/mL | 64 µg/mL | > 64 µg/mL | > 64 µg/mL | > 64 µg/mL | 64 µg/mL
9 | Cc1nc(-c2ccc(C(C)(C)C)cc2)ncc1C(=O)N[C@@H](CCN)C(=O)N(C)[C@@H]1C(=O)N[C@@H](C)C(=O)N[C@H](C(=O)NCC=O)Cc2ccc(OCCN)c(c2)-c2cc1ccc2OCCN.Cl.Cl.Cl.Cl | 64 µg/mL | ≤ 0.03 µg/mL | ≤ 0.03 µg/mL | 0.125 µg/mL | ≤ 0.03 µg/mL | ≤ 0.03 µg/mL | 4 µg/mL | > 64 µg/mL | 2 µg/mL | 0.06 µg/mL
